Data on 29 molecules can be found in patent US10905665B2, “Chemical modulators of signaling pathways and therapeutic use” (Duke University, priority 2015, dated 2021).

By inhibition is commonly meant the share of the control response that was lost under treatment. Higher therefore signals a strong effect.

The experiment concerns Wnt/β-catenin transcription. The experiment can be described thus: Wnt-3A-stimulated TOPFlash reporter assay in HEK293 cells. The class given is cell-based. The note with it: for IC50 / inhibition at 2 µM / inhibition at 10 µM: Homo sapiens, HEK293, 8 h; for IC50: Wnt-3A conditioned medium, 8 hour treatment, read-out: Inhibition Wnt/β-catenin transcription TopFlash IC50. As for the experimental part: Stably transfected cells were seeded in 100 μl of cell growth medium/well in 96-well plates at 100% confluency. Fifty microliters of Wnt-3A conditioned medium containing the chemical compounds to be tested or DMSO was added to each well. After an 8 hour treatment, the cells were washed once with PBS and lysed with 55 μl of Passive Lysis Buffer supplied in the Dual-Luciferase Reporter Assay kit (Promega, Madison, Wis.). Twenty-five microliters of cell lysate was used for measuring luciferase activity in a 96-well plate reader (FluoStar Optima, BMG Labtech, Chicago, Ill.). Data were fit using GraphPad Prism (mean±SEM, n>=2).
In general terms: In a reporter assay the amount or activity of a reporter protein is the signal.

With `CCCCCCC(=O)Oc1ccc(Cl)cc1C(=O)Nc1ccc([N+](=O)[O-])cc1Cl` [Compound 63, 4-chloro-2-((2-chloro-4-nitrophenyl)carbamoyl)phenyl heptanoate], the IC50 came to 500 nM. Consider `COc1cc(O)c(C(=O)Nc2cccc(Cl)c2)cc1Cl` [Compound 56, 5-chloro-N-(3-chlorophenyl)-2-hydroxy-4-methoxybenzamide], for which, under “up to 10 μM”, the “Inhibition Wnt/β-catenin transcription TopFlash, result in words” value is given as “No inhibition”.

Turning to `CCCCCCCC/C=C\CCCCCCCC(=O)Oc1ccc(Cl)cc1C(=O)Nc1ccc([N+](=O)[O-])cc1Cl` [Compound 68, 4-chloro-2-((2-chloro-4-nitrophenyl)carbamoyl)phenyl oleate], the inhibition at 2 µM turned out to be 60%. As to `O=C(Nc1ccc(C(F)(F)F)cc1Cl)c1c(O)ccc2ccccc12` [Compound 43, N-(2-chloro-4-(trifluoromethyl)phenyl)-2-hydroxy-1-naphthamide], the “Inhibition Wnt/β-catenin transcription TopFlash, % inhibition @ 5 μM” value is reported as 50% inhibition.

`O=C(Nc1ccc([N+](=O)[O-])c(Cl)c1)c1cc(Cl)ccc1O` [Compound 36, 5-chloro-N-(3-chloro-4-nitrophenyl)-2-hydroxybenzamide]: 2 µM produced 90% inhibition. Take `O=C(Nc1ccc([N+](=O)[O-])cc1Cl)c1cc(Cl)ccc1OC(=O)N1CCOCC1` [Compound 71, 4-chloro-2-((2-chloro-4-nitrophenyl)carbamoyl)phenyl morpholine-4-carboxylate]: under “20 μM”, the “Inhibition Wnt/β-catenin transcription TopFlash, % inhibition @ 20 μM” value is on record as 60% inhibition. As to `O=C(Nc1ccccc1)c1ccc(NC(=O)c2cc(Cl)ccc2O)cc1` [Compound 40, 5-chloro-2-hydroxy-N-(4-(phenylcarbamoyl)phenyl)benzamide], the IC50 was 33000 nM.

Turning to `O=c1oc2ccc(Cl)cc2c(=O)n1-c1ccc([N+](=O)[O-])cc1Cl` [Compound 75, 6-chloro-3-(2-chloro-4-nitrophenyl)-2H-benzo[e][1,3]oxazine-2,4(3H)-dione], the IC50 is 370 ± 130 nM. `C#CCOc1cc(N=[N+]=[N-])ccc1NC(=O)c1cc(Cl)ccc1O` [Compound 37, N-(4-azido-2-(prop-2-yn-1-yloxy)phenyl)-5-chloro-2-hydroxybenzamide]: the inhibition at 2 µM is 40%. `CCCCCCC(=O)Oc1ccc(Cl)cc1C(=O)N(C(=O)CCCCCC)c1ccc([N+](=O)[O-])cc1Cl` [Compound 77, 4-Chloro-2-((2-chloro-4-nitrophenyl)(heptanoyl)carbamoyl)phenyl heptanoate]: the IC50 is 1600 nM.

Take `O=C(CCCCCN1C(=O)C=CC1=O)Oc1ccc(Cl)cc1C(=O)Nc1ccc([N+](=O)[O-])cc1Cl` [Compound 67, 4-chloro-2-((2-chloro-4-nitrophenyl)carbamoyl)phenyl 6-(2,5-dioxo-2,5-dihydro-1H-pyrrol-1-yl)hexanoate]: the “Inhibition Wnt/β-catenin transcription TopFlash, % inhibition @ 0.5 μM” value was determined as 75% inhibition. Regarding `COc1cc(O)c(C(=O)Nc2ccc(F)cc2Cl)cc1Cl` [Compound 55, 5-chloro-N-(2-chloro-4-fluorophenyl)-2-hydroxy-4-methoxybenzamide], testing at 10 µM gave an inhibition of 70%. With `C=CCOc1cc([N+](=O)[O-])ccc1NC(=O)c1cc(Cl)ccc1OC(C)=O` [Compound 60, 2-((2-(allyloxy)-4-nitrophenyl)carbamoyl)-4-chlorophenyl acetate], testing at 2 µM gave an inhibition of 80%. As to `CCCC(CCC)C(=O)Oc1ccc(Cl)cc1C(=O)Nc1ccc([N+](=O)[O-])cc1Cl` [Compound 66, 4-chloro-2-((2-chloro-4-nitrophenyl)carbamoyl)phenyl 2-propylpentanoate], the “Inhibition Wnt/β-catenin transcription TopFlash, % inhibition @ 0.5 μM” value is 30% inhibition. In turn, `O=CCOc1cc([N+](=O)[O-])ccc1NC(=O)c1cc(Cl)ccc1O` [Compound 31, 5-chloro-2-hydroxy-N-(4-nitro-2-(2-oxoethoxy)phenyl)benzamide] gave an inhibition at 2 µM of 55%. As for `O=C(Nc1ccc(C(F)(F)F)cc1Cl)c1cc2ccccc2cc1O` [Compound 44, N-(2-chloro-4-(trifluoromethyl)phenyl)-3-hydroxy-2-naphthamide], the “Inhibition Wnt/β-catenin transcription TopFlash, % inhibition @ 5 μM” value was 80% inhibition. `O=C(Nc1ccc(Br)cc1)c1cc(Br)ccc1O` [D, 5-bromo-N-(4-bromophenyl)-2-hydroxybenzamide, reference compound] had an inhibition at 2 µM of 60%. For the molecule `CCCCCCCCOC(=O)O/C(=N/c1ccc([N+](=O)[O-])cc1Cl)c1cc(Cl)ccc1OC(=O)OCCCCCCCC` [Compound 79, 5-chloro-N-(2-chloro-4-nitrophenyl)-2-(((octyloxy)carbonyl)oxy)benzimidic (octyl carbonic) anhydride], the IC50 worked out at 800 nM. For the molecule `CC(C)C(=O)Oc1ccc(Cl)cc1C(=O)Nc1ccc([N+](=O)[O-])cc1Cl` [Compound 64, 4-chloro-2-((2-chloro-4-nitrophenyl)carbamoyl)phenyl isobutyrate], the “Inhibition Wnt/β-catenin transcription TopFlash, % inhibition @ 0.5 μM” value is 70% inhibition. For the molecule `O=C(Nc1c(F)cccc1F)c1cc(Cl)ccc1O` [Compound 21, 5-chloro-N-(2,6-difluorophenyl)-2-hydroxybenzamide], the IC50 was above 12000 nM. `O=C(Nc1ccc(OCc2ccccc2)c(Cl)c1)c1cc(Cl)ccc1O` [Compound 27, N-(4-(benzyloxy)-3-chlorophenyl)-5-chloro-2-hydroxybenzamide] gave an inhibition at 2 µM of 75%. `COc1ccc(C(=O)Nc2ccc([N+](=O)[O-])cc2Cl)c(O)c1` [Compound 53, N-(2-chloro-4-nitrophenyl)-2-hydroxy-4-methoxybenzamide] yielded an inhibition at 2 µM of 70%. Molecule `C#CCOc1cc([N+](=O)[O-])ccc1NC(=O)c1cc(Cl)ccc1O` [Compound 33, 5-chloro-2-hydroxy-N-(4-nitro-2-(prop-2-yn-1-yloxy)phenyl)benzamide] displayed an inhibition at 2 µM of 45%.

Molecule `O=C(Nc1ccc(C(F)(F)F)c(Cl)c1)c1cc(Cl)ccc1O` [Compound 38, 5-chloro-N-(3-chloro-4-(trifluoromethyl)phenyl)-2-hydroxybenzamide] gave an inhibition at 2 µM of 90%. The molecule `Cc1ccc(S(=O)(=O)Nc2ccc(Br)cc2C(=O)Nc2ccc(C(F)(F)F)cc2)cc1` [Compound 48, 5-bromo-2-((4-methylphenyl)sulfonamido)-N-(4-(trifluoromethyl)phenyl)benzamide] returned an inhibition at 10 µM of 93%.

On to `CCCCCCCCCCCCCCCCCC(=O)Oc1ccc(Cl)cc1C(=O)Nc1ccc([N+](=O)[O-])cc1Cl` [Compound 62, 4-chloro-2-((2-chloro-4-nitrophenyl)carbamoyl)phenyl stearate], for which at 10 µM the inhibition was 70%.

On to `O=C(Nc1ccc(C(F)(F)F)cc1Cl)c1ccc2ccccc2c1O` [Compound 45, N-(2-chloro-4-(trifluoromethyl)phenyl)-1-hydroxy-2-naphthamide], for which the “Inhibition Wnt/β-catenin transcription TopFlash, % inhibition @ 5 μM” value is 60% inhibition. For the molecule `O=C(Nc1ccc(C(F)(F)F)cc1)c1cnc2ccccc2c1O` [Compound 49, 4-hydroxy-N-(4-(trifluoromethyl)phenyl)quinoline-3-carboxamide], the “Inhibition Wnt/β-catenin transcription TopFlash, result in words” value (up to 12 μM) was “Stimulates up”. Turning to `O=C(Nc1ccc([N+](=O)[O-])cc1Cl)c1cc(-c2ccccc2)ccc1O` [Compound 41, N-(2-chloro-4-nitrophenyl)-4-hydroxy-[1,1′-biphenyl]-3-carboxamide], for the setting “1 μM”, the “Inhibition Wnt/β-catenin transcription TopFlash, % inhibition @ 1 μM” value is 90% inhibition.
